Several values for one entry are separate records, joined by “and”; a condition that tells them apart may be missing. Equal entries are not always repeated. Where two headings read alike, the source gives them in different places.
Experiments:
[1] = system: kochia (KCHSC, Kochia scoparia); assay: Greenhouse postemergence herbicidal effect; format: in vivo
In short: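 Plants at the second or third true leaf stage received overhead spray at 187 L/ha, with the pyridine carboxylate (plus cloquintocet-mexyl safener) alone or with ALS herbicides in 1.25% v/v crop oil. Rates are in g ae/ha or g ai/ha. Visual injury versus solvent-blank controls was scored 0–100% after 20-22 d in the greenhouse.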

spring barley (HORVS) = format: in vivo, Hordeum vulgare
In short: (§1)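 Herbicide mixtures, dosed as g ae/ha for the pyridine carboxylate and g ai/ha for the ALS inhibitor, are applied postemergence with cloquintocet-mexyl safener. Control plants receive solvent blank. Percent injury is assessed by eye 20–22 d later.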

[2] = system: false chamomile (MATIN, Matricaria inodora); assay: Greenhouse postemergence herbicidal effect; format: in vivo
In short: as §1

[3] = system: R-PAPRH = Papaver rhoeas (corn poppy), herbicide-resistant; assay: Greenhouse postemergence herbicidal effect; format: in vivo
In short: as §1

[4] = system: field violet (VIOAR, Viola arvensis); assay: Greenhouse postemergence herbicidal effect; format: in vivo
In short: as §1

[5] = system: cleavers (GALAP, Galium aparine); assay: Greenhouse postemergence herbicidal effect; format: in vivo
In short: as §1

[6] = system: bird's-eye speedwell (VERPE, Veronica persica); assay: Greenhouse postemergence herbicidal effect; format: in vivo
In short: as §1

[7] = system: purple deadnettle (LAMPU, Lamium purpureum); assay: Greenhouse postemergence herbicidal effect; format: in vivo
In short: as §1

[8] = system: wild mustard (SINAR, Sinapis arvensis); assay: Greenhouse postemergence herbicidal effect; format: in vivo
In short: as §1

[9] = system: ivyleaf speedwell (VERHE, Veronica hederifolia); assay: Greenhouse postemergence herbicidal effect; format: in vivo
In short: as §1

[10] = system: shepherd's purse (CAPBP, Capsella bursa-pastoris); assay: Greenhouse postemergence herbicidal effect; format: in vivo
In short: as §1

[11] = system: cornflower (CENCY, Cyanus segetum); assay: Greenhouse postemergence herbicidal effect; format: in vivo
In short: as §1

[12] = system: corn poppy (PAPRH, Papaver rhoeas); assay: Greenhouse postemergence herbicidal effect; format: in vivo
In short: as §1

[13] = system: field chamomile (ANTAR, Anthemis arvensis); assay: Greenhouse postemergence herbicidal effect; format: in vivo
In short: as §1

[14] = system: turnip (BRSRR, Brassica rapa); assay: Greenhouse postemergence herbicidal effect; format: in vivo
In short: as §1

[15] = Bassia scoparia, post-emergence, 10 g/ha, read-out: % visual injury, Obs
[16] = Compound A 10 g/ha (Examples 62-63)

## N#CCOC(=O)c1nc(-c2ccc3cc[nH]c3c2F)c(F)c(N)c1Cl [Compound A, cyanomethyl 4-amino-3-chloro-5-fluoro-6-(7-fluoro-1H-indol-6-yl)pyridine-2-carboxylate]
[1]; [15]
  pest or weed control at 10 g/ha: 68%
[1]; Bassia scoparia, post-emergence, Compound A 10 g/ha, read-out: % visual injury, Obs
  pest or weed control at 10 g/ha: 65%
[1]; Bassia scoparia, post-emergence, Compound A 10 g/ha, safener mefenpyr-diethyl, read-out: % visual injury, Obs
  pest or weed control at 10 g/ha: 70%
[1]; Bassia scoparia, post-emergence, KCHSC, Compound A 10 g/ha, read-out: % visual injury, Obs
  pest or weed control at 10 g/ha: 68%
[1]; Bassia scoparia, post-emergence, KCHSC, Compound A 15 g/ha, read-out: % visual injury, Obs
  pest or weed control at 15 g/ha: 68%
[1]; Compound A 10 g/ha
  % visual injury: 75% and 63% and 70% and 68%
  % visual injury Obs: 68% and 58% and 70%
[1]; [16]
  KCHSC % visual injury Obs: 65%
[1]; Compound A 10 g/ha, safener mefenpyr-diethyl
  KCHSC % visual injury Obs: 70%
[1]; Compound A 15 g/ha
  % visual injury: 75% and 68%
  % visual injury Obs: 68%
[1]; KCHSC, Compound A 10 g/ha
  Obs % visual injury: 68% and 70% and 65%
[1]; KCHSC, Compound A 10 g/ha (Table 65)
  Obs % visual injury: 65%
[1]; KCHSC, Compound A 10 g/ha (Table 66)
  Obs % visual injury: 70%
[1]; KCHSC, Compound A 10 g/ha (Table 67)
  Obs % visual injury: 70%
[1]; KCHSC, Compound A 15 g/ha
  Obs % visual injury: 68%
[1]; KCHSC, Compound A 15 g/ha (Table 67)
  Obs % visual injury: 70%
Spring barley (HORVS); 10 g/ha
  % visual injury, Obs: 0%
Spring barley (HORVS); Compound A 10 g/ha
  % visual injury: 0%
  % visual injury Obs: 0%
  % visual injury, Obs: 0%
Spring barley (HORVS); [16]
  HORVS % visual injury Obs: 0%
Spring barley (HORVS); Compound A 15 g/ha
  % visual injury: 0%
  % visual injury Obs: 0%
Spring barley (HORVS); HORVS, Compound A 10 g/ha
  % visual injury, Obs: 0%
  Obs % visual injury: 0%
Spring barley (HORVS); HORVS, Compound A 10 g/ha (Table 65)
  Obs % visual injury: 0%
Spring barley (HORVS); HORVS, Compound A 10 g/ha (Table 66)
  Obs % visual injury: 0%
Spring barley (HORVS); HORVS, Compound A 10 g/ha (Table 67)
  Obs % visual injury: 5%
Spring barley (HORVS); HORVS, Compound A 15 g/ha
  % visual injury, Obs: 0%
  Obs % visual injury: 0%
Spring barley (HORVS); HORVS, Compound A 15 g/ha (Table 67)
  Obs % visual injury: 3%
[2]; Compound A 10 g/ha
  % visual injury: 100%
[2]; Compound A 15 g/ha
  % visual injury: 100%
[3]; Compound A 10 g/ha
  % visual injury: 93%
[3]; Compound A 15 g/ha
  % visual injury: 93%
[4]; Compound A 10 g/ha
  % visual injury: 5%
[4]; Compound A 15 g/ha
  % visual injury: 5%
[5]; Compound A 10 g/ha
  % visual injury: 25%
[5]; Compound A 15 g/ha
  % visual injury: 35%
[6]; Compound A 10 g/ha
  % visual injury: 93%
[6]; Compound A 15 g/ha
  % visual injury: 95%
[7]; Compound A 10 g/ha
  % visual injury: 75%
[7]; Compound A 15 g/ha
  % visual injury: 75%
[8]; 10 g/ha
  % visual injury, Obs: 90% and 92% and 88%
[8]; Compound A 10 g/ha
  % visual injury: 95% and 90% and 88% and 93%
  % visual injury Obs: 93% and 92% and 88%
  % visual injury, Obs: 100%
[8]; [16]
  SINAR % visual injury Obs: 100%
[8]; Compound A 15 g/ha
  % visual injury: 97% and 93%
  % visual injury Obs: 93%
[8]; SINAR, Compound A 10 g/ha
  % visual injury, Obs: 93%
  Obs % visual injury: 93% and 88% and 100%
[8]; SINAR, Compound A 10 g/ha (Table 65)
  Obs % visual injury: 100%
[8]; SINAR, Compound A 10 g/ha (Table 66)
  Obs % visual injury: 88%
[8]; SINAR, Compound A 15 g/ha
  % visual injury, Obs: 93%
  Obs % visual injury: 93%
[9]; Compound A 10 g/ha
  % visual injury: 80%
[9]; Compound A 15 g/ha
  % visual injury: 80%
[10]; Compound A 10 g/ha
  % visual injury: 70%
[10]; Compound A 15 g/ha
  % visual injury: 80%
[11]; Compound A 10 g/ha
  % visual injury: 93%
[11]; Compound A 15 g/ha
  % visual injury: 95%
[12]; Compound A 10 g/ha
  % visual injury: 100%
[12]; Compound A 15 g/ha
  % visual injury: 100%
[13]; Compound A 10 g/ha
  % visual injury: 90%
[13]; Compound A 15 g/ha
  % visual injury: 95%

## C#CCOC(=O)c1nc(-c2ccc3cc[nH]c3c2F)c(F)c(N)c1Cl [Compound B, propargyl 4-amino-3-chloro-5-fluoro-6-(7-fluoro-1H-indol-6-yl)pyridine-2-carboxylate]
[1]; [15]
  pest or weed control at 10 g/ha: 73%
[1]; KCHSC, Compound B 5 g/ha
  Obs % visual injury: 60%
[1]; KCHSC, Compound B 10 g/ha
  Obs % visual injury: 65%
[1]; KCHSC, Compound B (without cloquintocet-mexyl safener) 10 g/ha
  Obs % visual injury: 96%
Spring barley (HORVS); HORVS, Compound B 10 g/ha
  Obs % visual injury: 0%
[14]; Compound B 10 g/ha
  Obs % visual injury: 85%

## COc1ncc(F)c2nc(S(=O)(=O)Nc3c(F)cccc3F)nn12 [Florasulam, florasulam]
[1]; Florasulam 3.75 g/ha
  % visual injury Obs: 70%
[1]; Florasulam 5 g/ha
  % visual injury: 95%
Spring barley (HORVS); Florasulam 3.75 g/ha
  % visual injury Obs: 0%
Spring barley (HORVS); Florasulam 5 g/ha
  % visual injury: 0%
[2]; Florasulam 5 g/ha
  % visual injury: 100%
[14]; Florasulam 5 g/ha
  Obs % visual injury: 95%
[3]; Florasulam 5 g/ha
  % visual injury: 75%
[4]; Florasulam 5 g/ha
  % visual injury: 10%
[5]; Florasulam 5 g/ha
  % visual injury: 95%
[6]; Florasulam 5 g/ha
  % visual injury: 10%
[7]; Florasulam 5 g/ha
  % visual injury: 10%
[8]; Florasulam 3.75 g/ha
  % visual injury Obs: 85%
[8]; Florasulam 5 g/ha
  % visual injury: 95%
[9]; Florasulam 5 g/ha
  % visual injury: 5%
[10]; Florasulam 5 g/ha
  % visual injury: 80%
[11]; Florasulam 5 g/ha
  % visual injury: 70%
[12]; Florasulam 5 g/ha
  % visual injury: 97%
[13]; Florasulam 5 g/ha
  % visual injury: 70%
